Assay results as given in patent US9683019B2, “Cyclic polypeptides for the treatment of heart failure” (priority 2013, dated 2017).
Where a SMILES comes first, the peptide text is derived from it. Bridges are numbered along the chain shown (N, C = ends). [ ]: non-standard residue; d: D form. pGlu = O=C1CC[C@@H](C(=O)O)N1; hCys = N[C@@H](CCS)C(=O)O

Key:
[1] = Plasma Stability Assay (LC-MS); type: in vitro ADME; conditions: male, Sprague-Dawley, heparinized rat plasma, 37° C., read-out: Plasma stability t½
Experimental: Plasma Stability Assay: Materials: Working solution: 1 mg/mL test article is prepared in Milli-Q water Extraction solution: Methanol:Acetonitrile:Water (1:1:1) with 0.1% Formic Acid and 400 ng/mL Glyburide. Plasma: Male Sprague-Dawley rat plasma (with sodium heparin), purchased from Bioreclamation LLC (Liverpool, N.Y.). Test article was prepared in one of the following biological matrices: heparinized rat plasma, heparinized rat whole blood or lung homogenate. […] Lung homogenate samples were prepared by diluting lung homogenate to 1 mg/ml protein concentration with phosphate buffered saline (PBS), followed by addition of 5 uL Working solution to 995 uL diluted lung homogenate. The samples were incubated at 37° C. with gentle shaking (65˜75 rpm) in a water bath incubator. […] Afterwards, a pipetting device (Tecan Temo) was used to transfer the supernatants to another plate and add 50 uL of water to all samples. The plate was vortexed prior to LC-MS analysis. […] The samples are incubated at 37° C. with gentle shaking (65˜75 rpm) in a water bath incubator. […] The reaction mixture is incubated at 37° C. for 1 hour. After completion of reaction, protein precipitation is performed using 300 uL of acetonitrile. […] Afterwards, a pipetting device (Tecan Temo) is used to transfer 125 uL supernatants to another plate and adds 50 uL of water to all samples. […]

[2] = Surrogate Activity-Based Plasma Stability Assay; type: in vitro ADME; conditions: rat
Excerpt: Surrogate Activity-Based Plasma Stability Assay:
2) Calculate slope of value above and […]

[3] = target: T1, hAPJ (Homo sapiens, UniProt P35414); assay: hAPJ Calcium Flux Assay; type: cell-based; conditions: Chem-5 APJ stable cells, calcium flux stimulation; read-out: hAPJ Ca2+ Flux EC50
T1 sequence (P35414 1-380): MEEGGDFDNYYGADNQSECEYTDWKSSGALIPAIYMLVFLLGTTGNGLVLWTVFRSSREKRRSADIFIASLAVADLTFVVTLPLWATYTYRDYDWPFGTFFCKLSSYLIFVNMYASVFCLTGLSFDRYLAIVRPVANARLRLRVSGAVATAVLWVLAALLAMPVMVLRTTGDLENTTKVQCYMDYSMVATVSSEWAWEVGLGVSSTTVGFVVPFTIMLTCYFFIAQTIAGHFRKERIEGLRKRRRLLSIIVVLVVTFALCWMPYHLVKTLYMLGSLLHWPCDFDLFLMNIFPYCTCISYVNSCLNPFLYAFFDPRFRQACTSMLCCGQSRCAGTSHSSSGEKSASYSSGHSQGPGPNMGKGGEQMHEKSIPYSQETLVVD
Experimental: Chem-5 APJ stable cells (Millipore # HTS068C) were plated in 384-well format with 10,000 cells/well in 25 ul growth media, then grown 24 hours in a 37° C. tissue culture incubator. One hour before the assay, 25 ul/well FLIPR Calcium 4 dye (Molecular Devices R8142) with 2.5 mM probenecid was added, and cells were incubated one hour in a 37° C. tissue culture incubator. Peptides were solubilized in HBSS, HEPES & 0.1% BSA buffer, and serially-diluted 10-fold, from 50 uM to 5 pM, in triplicate. FLIPR Tetra was used to add peptide to the cells with dye (1:5, for final peptide concentrations ranging from 10 uM to 1 pM). FLIPR dye inside the cells emitted fluorescence after binding to calcium, while fluorescence from outside the cells was masked. […] Readings were done for 3 minutes total, beginning 10 seconds before the peptide addition. Maximum-minimum values were calculated and plotted for each peptide concentration, and GraphPad prism software was used to calculate EC50 values at the curve inflection points, for calcium flux stimulation by peptides.

EC50 [3]	Structure (SMILES)	half-life [1]	Surrogate Activity based Plasma stability t½ [2]	half-life [2]
–	CCCC[C@@H](NC(=O)[C@@H]1CCCN1C(=O)CNC(=O)[C@H](CCCCN)NC(=O)[C@@H]1CSSC[C@H](NC(=O)[C@@H]2CCCN2C(=O)[C@H](CCCNC(=N)N)NC(=O)[C@@H]2CCC(=O)N2)C(=O)N[C@@H](CC(C)C)C(=O)N[C@@H](CO)C(=O)N1)C(=O)NCCc1ccccc1 [Example 32, pE-R-P-C*-L-S-C*-K-G-P-(D-Nle)-NH(Phenethyl)]	6.28 h	>16.67 h	> 16.7 h
4.2 nM	CC(C)C[C@@H]1NC(=O)[C@@H](NC(=O)[C@@H]2CCCN2C(=O)[C@H](CCCNC(=N)N)NC(=O)[C@@H]2CCC(=O)N2)CCSSC[C@@H](C(=O)N[C@@H](CCCCN)C(=O)NCC(=O)N2CCC[C@H]2C(=O)N[C@H](Cc2ccccc2)C(=O)N[C@H](C)C(=O)N[C@H](Cc2ccccc2)C(=O)O)NC(=O)[C@H](CO)NC1=O [Example 36, pE-R-P-hC*-L-S-C*-K-G-P-f-a-f-OH] ([pGlu]RP[hCys]LSCKGP[dF][dA][dF]-OH; disulfide 4-7)	–	–	0.567 h
